Laboratory results: patent US20240116985A1, “STAPLED PEPTIDES AND METHODS THEREOF” (priority 2020, published 2024)
Like-named read-outs stand apart in the source and are kept apart here.

Key:
[1] = biological target: T1, beta-catenin/TCF4 engagement (Homo sapiens, UniProt P35222); experiment: Nano-BRET target engagement assay (B-cat-Halo & TCF4-Luc in HEK293 cells); format: cell-based; conditions: read-out: NanoBRET Abs IC50
T1 construct: expressed in transfected cells; host or cells: HEK293
T1 sequence (P35222 1-781): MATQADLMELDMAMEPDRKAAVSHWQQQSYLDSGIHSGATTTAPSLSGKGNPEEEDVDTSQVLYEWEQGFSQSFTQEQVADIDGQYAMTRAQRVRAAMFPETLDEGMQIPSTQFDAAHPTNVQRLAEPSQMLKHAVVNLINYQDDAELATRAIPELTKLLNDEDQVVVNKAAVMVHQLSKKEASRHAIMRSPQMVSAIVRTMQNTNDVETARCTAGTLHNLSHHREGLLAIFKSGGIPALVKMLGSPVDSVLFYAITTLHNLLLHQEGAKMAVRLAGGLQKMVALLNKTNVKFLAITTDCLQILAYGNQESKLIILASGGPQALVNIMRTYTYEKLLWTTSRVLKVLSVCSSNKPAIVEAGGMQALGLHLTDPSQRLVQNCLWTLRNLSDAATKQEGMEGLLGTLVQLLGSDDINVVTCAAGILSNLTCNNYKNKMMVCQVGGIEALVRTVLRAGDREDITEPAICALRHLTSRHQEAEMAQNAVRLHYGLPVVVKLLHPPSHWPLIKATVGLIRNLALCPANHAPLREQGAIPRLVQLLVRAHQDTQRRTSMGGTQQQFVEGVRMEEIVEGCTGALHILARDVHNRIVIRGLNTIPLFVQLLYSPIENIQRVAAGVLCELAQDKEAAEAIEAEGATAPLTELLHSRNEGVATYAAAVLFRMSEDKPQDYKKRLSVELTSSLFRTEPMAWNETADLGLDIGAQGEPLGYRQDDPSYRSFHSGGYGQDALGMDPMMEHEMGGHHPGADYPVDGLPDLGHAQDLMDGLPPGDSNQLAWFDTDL

[2] = biological target: T2, full-length beta-Catenin (Uniprot ID P35222) (Homo sapiens, UniProt P35222); experiment: Fluorescence polarization IC50 (beta-catenin / 5FAM-TCF4 10-53 competition); format: binding
T2 construct: 10 nM full-length beta-Catenin (Uniprot ID P35222)
T2 sequence (P35222 1-781): T1 sequence (P35222 1-781)

[3] = fluorescence polarization; read-out: beta-Catenin FP IC50

| SMILES | IC50 ([1]; absolute IC50) | IC50 [2, 3] | IC50 [1] | IC50 ([2]; read-out: beta-Catenin FP IC50; fluorescence polarization) |
| --- | --- | --- | --- | --- |
| CC(=O)N1CCC[C@]12CC=CCCCC1(CCCC=CCCCOC(=O)N3CC[C@@](C(=O)N[C@@H](Cc4ccsc4)C(=O)N[C@@H](Cc4csc5ccccc45)C(=O)N[C@@H](CCC(N)=O)C(=O)N[C@@H](CCCCNC(=O)COCCOCCNC(=O)CC[C@@H](C)[C@H]4CC[C@H]5[C@@H]6CC[C@@H]7C[C@H](O)CC[C@]7(C)[C@H]6CC[C@]45C)C(N)=O)(C3)NC(=O)[C@H](CC(C)C)NC(=O)[C@H](Cc3ccccc3)NC(=O)[C@H](C)NC(=O)[C@H](C)NC(=O)[C@H](CC(=O)O)NC(=O)[C@H](CC(=O)O)NC1=O)NC(=O)[C@H](CC(C)(C)C)NC(=O)[C@H](CC(=O)O)NC2=O (stereo partly drawn) [I-1478, Ac-PL3-Asp-Npg-B5-Asp-Asp-Ala-Ala-Phe-Leu-PyrS2-3Thi-BztA-Gln-[lithocholate-PEG2]-Lys-NH2] | 17100 nM | 75 nM |  |  |
| CC(=O)N1CCC[C@]12CC=CCCCC1(CCCC=CCCCOC(=O)N3CC[C@@](C(=O)N[C@@H](Cc4ccsc4)C(=O)N[C@@H](Cc4csc5ccccc45)C(=O)N[C@@H](CC(C)(C)C)C(N)=O)(C3)NC(=O)[C@H](CC(C)C)NC(=O)[C@H](Cc3ccccc3)NC(=O)[C@H](C)NC(=O)C(C)(C)NC(=O)[C@H](Cc3cccc(C(=O)O)c3)NC(=O)[C@H](CC(=O)O)NC1=O)NC(=O)[C@H](CC(C)(C)C)NC(=O)[C@H](CC(=O)O)NC2=O (stereo partly drawn) [I-2194, Ac-PL3-Asp-Npg-B5-Asp-3COOHF-Aib-Ala-Phe-Leu-PyrS2-3Thi-BztA-Npg-NH2] |  | 91 nM | 8800 nM |  |
| CC(=O)N1CCC[C@]12CC=CCCCC1(CCCC=CCCCOC(=O)N3CC[C@@](C(=O)N[C@@H](Cc4ccsc4)C(=O)N[C@@H](Cc4csc5ccccc45)C(=O)N[C@@H](CCC(N)=O)C(N)=O)(C3)NC(=O)[C@H](CC(=O)N3CCOCC3)NC(=O)[C@H](Cc3ccccc3)NC(=O)[C@H](C)NC(=O)[C@H](C)NC(=O)[C@H](CC(=O)O)NC(=O)[C@H](CC(=O)O)NC1=O)NC(=O)[C@H](CC(C)(C)C)NC(=O)[C@H](CC(=O)O)NC2=O (stereo partly drawn) [I-1487, Ac-PL3-Asp-Npg-B5-Asp-Asp-Ala-Ala-Phe-MorphAsn-PyrS2-3Thi-BztA-Gln-NH2] | 21500 nM | 7 nM |  |  |
| CC(=O)N1CCC[C@]12CC=CCCCC1(CCCC=CCCCOC(=O)N3CC[C@@](C(=O)N[C@@H](Cc4ccccc4Cl)C(=O)N[C@@H](Cc4csc5ccccc45)C(=O)N[C@@H](CCC(N)=O)C(=O)N[C@H](CO)Cc4ccccc4)(C3)NC(=O)[C@H](CC(C)C)NC(=O)[C@H](Cc3ccccc3)NC(=O)[C@H](C)NC(=O)[C@H](C)NC(=O)[C@H](Cc3cccc(C(=O)O)c3)NC(=O)[C@H](CC(=O)O)NC1=O)NC(=O)[C@H](CC(C)(C)C)NC(=O)[C@H](CC(=O)O)NC2=O (stereo partly drawn) [I-1674, Ac-PL3-Asp-Npg-B5-Asp-3COOHF-Ala-Ala-Phe-Leu-PyrS2-2C1F-BztA-Gln-] | 18300 nM | 147 nM |  |  |
| CC(=O)N1CCC[C@]12CC=CCCCC1(CCCC=CCCCOC(=O)N3CC[C@@](C(=O)N[C@@H](Cc4ccsc4)C(=O)N[C@@H](Cc4csc5ccccc45)C(=O)N[C@@H](CCC(N)=O)C(N)=O)(C3)NC(=O)[C@H](CC(C)C)NC(=O)[C@H](Cc3ccccc3)NC(=O)[C@H](C)NC(=O)[C@H](C)NC(=O)[C@H](CC(=O)O)NC(=O)[C@H](CC(=O)O)NC1=O)NC(=O)[C@H](CC(C)(C)C)NC(=O)[C@H](CC(=O)OCCSSc1ccccc1)NC2=O (stereo partly drawn) [I-1952, Ac-PL3-[EtSSPh]AspE-Npg-B5-Asp-Asp-Ala-Ala-Phe-Leu-PyrS2-3Thi-BztA-Gln-NH2] |  |  | > 20000 nM | 923 nM |

Continued by falling IC50 [2, 3], values first:

| IC50 ([1]; absolute IC50) | IC50 [2, 3] | IC50 [1] | SMILES | IC50 ([2]; read-out: beta-Catenin FP IC50; fluorescence polarization) |
| --- | --- | --- | --- | --- |
| > 20000 nM | 182 nM |  | CC(=O)N1CCC[C@]12CC=CCCCC1(CCCC=CCCCOC(=O)N3CC[C@@](C(=O)N[C@@H](Cc4ccsc4)C(=O)N[C@@H](Cc4csc5ccccc45)C(=O)N[C@@H](CCC(N)=O)C(N)=O)(C3)NC(=O)[C@H](CCO)NC(=O)[C@H](Cc3ccccc3)NC(=O)[C@H](C)NC(=O)[C@H](C)NC(=O)[C@H](Cc3c(F)c(F)c(F)c(F)c3F)NC(=O)[C@H](CC(=O)O)NC1=O)NC(=O)[C@H](CC(C)(C)C)NC(=O)[C@H](CC(=O)O)NC2=O (stereo partly drawn) [I-1791, Ac-PL3-Asp-Npg-B5-Asp-Pff-Ala-Ala-Phe-Hse-PyrS2-3Thi-BztA-Gln-NH2] |  |
| > 20000 nM | 106 nM |  | CC(=O)N1CCC[C@]12CC=CCCCC1(CCCC=CCCCOC(=O)N3CC[C@@](C(=O)N[C@@H](Cc4ccsc4)C(=O)N[C@@H](Cc4csc5ccccc45)C(=O)N[C@@H](CC(N)=O)C(N)=O)(C3)NC(=O)[C@H](CC(=O)N(C)C)NC(=O)[C@H](Cc3ccccc3)NC(=O)[C@H](C)NC(=O)C(C)(C)NC(=O)[C@H]([C@@H](C)O)NC(=O)[C@H](CC(N)=O)NC1=O)NC(=O)[C@H](CC(C)(C)C)NC(=O)[C@H](CC(=O)O)NC2=O (stereo partly drawn) [I-2496, Ac-PL3-Asp-Npg-B5-Asn-Thr-Aib-Ala-Phe-Me2Asn-PyrS2-3Thi-BztA-Asn-NH2] |  |
|  | 86 nM | > 20000 nM | CC(=O)N1CCC[C@]12CC=CCCCC1(CCCC=CCCCOC(=O)N3CC[C@@](C(=O)N[C@@H](Cc4ccsc4)C(=O)N[C@@H](Cc4csc5ccccc45)C(=O)N[C@H](C)C(N)=O)(C3)NC(=O)[C@H](CC(C)C)NC(=O)[C@H](Cc3ccccc3)NC(=O)[C@@H](C)NC(=O)[C@H](C)NC(=O)[C@H](Cc3cccc(C(=O)O)c3)NC(=O)[C@H](CC(=O)O)NC1=O)NC(=O)[C@H](CC(C)(C)C)NC(=O)[C@H](CC(=O)O)NC2=O (stereo partly drawn) [I-2100, Ac-PL3-Asp-Npg-B5-Asp-3COOHF-Ala-dAla-Phe-Leu-PyrS2-3Thi-BztA-dAla-NH2] |  |
| 37900 nM | 71 nM |  | CC(=O)N1CCC[C@]12CC=CCCCC1(CCCC=CCCCCCC[C@@](C)(C(=O)N[C@@H](Cc3ccccc3)C(=O)N[C@@H](Cc3csc4ccccc34)C(=O)N[C@@H](CCC(N)=O)C(N)=O)NC(=O)[C@H](CC(C)C)NC(=O)[C@H](Cc3ccccc3)NC(=O)[C@H](C)NC(=O)[C@H](C)NC(=O)[C@H](CCC(=O)O)NC(=O)[C@H](CC(=O)O)NC1=O)NC(=O)[C@H](CCO)NC(=O)[C@H](CC(=O)O)NC2=O (stereo partly drawn) [I-1546, Ac-PL3-Asp-Hse-B5-Asp-Glu-Ala-Ala-Phe-Leu-S8-Phe-BztA-Gln-NH2] |  |
| > 20000 nM | 57 nM |  | CCN(CC(=O)O)C[C@@H]1NC(=O)[C@H](CC(=O)O)NC(=O)C2(CCCC=CCCCCCC[C@@](C)(C(=O)N[C@@H](Cc3ccsc3)C(=O)N[C@@H](Cc3csc4ccccc34)C(=O)N[C@@H](CCC(N)=O)C(N)=O)NC(=O)[C@H](CC(N)=O)NC(=O)[C@H](Cc3ccccc3)NC(=O)[C@H](C)NC(=O)[C@H](C)NC1=O)CCCC=CC[C@]1(CCCN1C(C)=O)C(=O)N[C@@H](CC(=O)O)C(=O)N[C@@H](CC(C)(C)C)C(=O)N2 (stereo partly drawn) [I-1627, Ac-PL3-Asp-Npg-B5-Asp-[Et]GA-Ala-Ala-Phe-Asn-S8-3Thi-BztA-Gln-NH2] |  |
| 5700 nM | 27 nM |  | CC(=O)N1CCC[C@]12CC=CCCCC1(CCCC=CCCCOC(=O)N3CC[C@@](C(=O)N[C@@H](Cc4ccsc4)C(=O)N[C@@H](Cc4csc5ccccc45)C(=O)N[C@@H](CCC(N)=O)C(N)=O)(C3)NC(=O)[C@H](CC(C)C)NC(=O)[C@H](Cc3ccccc3)NC(=O)[C@H](C)NC(=O)[C@H](C)NC(=O)[C@H](Cc3cc(C(=O)O)cc(C(F)(F)F)c3)NC(=O)[C@H](CC(=O)O)NC1=O)NC(=O)[C@H](CC(C)(C)C)NC(=O)[C@H](CC(=O)O)NC2=O (stereo partly drawn) [I-2208, Ac-PL3-Asp-Npg-B5-Asp-5F3Me3COOHF-Ala-Ala-Phe-Leu-PyrS2-3Thi-BztA-Gln-NH2] |  |
| 5000 nM | 11 nM |  | CC(=O)N1CCC[C@]12CC=CCCCC1(CCCC=CCCCOC(=O)N3CC[C@@](C(=O)N[C@@H](Cc4ccsc4)C(=O)N[C@@H](Cc4ccc(Cl)cc4)C(=O)N[C@@H](C)C(N)=O)(C3)NC(=O)[C@H](C(C)C)NC(=O)[C@H](Cc3ccccc3)NC(=O)[C@H](C)NC(=O)[C@H](CCC(N)=O)NC(=O)[C@H](Cc3cccc(C(=O)O)c3)NC(=O)[C@H](CC(=O)O)NC1=O)NC(=O)[C@H](CC(C)(C)C)NC(=O)[C@H](CC(=O)O)NC2=O (stereo partly drawn) [I-2221, Ac-PL3-Asp-Npg-B5-Asp-3COOHF-Gln-Ala-Phe-Val-PyrS2-3Thi-4C1F-Ala-NH2] |  |
|  | 5 nM | 5000 nM | CC(=O)N1CCC[C@]12CC=CCCCC1(CCCC=CCCCOC(=O)N3CC[C@@](C(=O)N[C@@H](Cc4ccsc4)C(=O)N[C@@H](Cc4ccc(Cl)c(Cl)c4)C(=O)N[C@@H](CCC(N)=O)C(N)=O)(C3)NC(=O)[C@H](CC(C)C)NC(=O)[C@H](Cc3ccccc3)NC(=O)[C@H](C)NC(=O)[C@H](C)NC(=O)[C@H](CC(=O)O)NC(=O)[C@H](CC(=O)O)NC1=O)NC(=O)[C@H](CC(C)(C)C)NC(=O)[C@H](CC(=O)O)NC2=O (stereo partly drawn) [I-2183, Ac-PL3-Asp-Npg-B5-Asp-Asp-Ala-Ala-Phe-Leu-PyrS2-3Thi-34C1F-Gln-NH2] |  |
